#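 Cultured in 96-well plates, cells were exposed to test compound for 48 hours across five concentrations. GI50 is the concentration that inhibits growth by half. TGI marks complete inhibition of growth.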
# How the values were obtained:
# Experiment in all cases: NCI tumour cell line growth inhibition, 48 h
# BT-549 breast = test system: BT-549 breast
# ACHN renal = test system: ACHN renal
# HCT-15 colon = test system: HCT-15 colon
# HCC-2998 colon = test system: HCC-2998 colon
# COLO 205 colon = test system: COLO 205 colon
# A498 renal = test system: A498 renal
# HL-60(TB) leukemia = test system: HL-60(TB) leukemia
# DU-145 prostate = test system: DU-145 prostate
# K-562 leukemia = test system: K-562 leukemia
# SNB-19 CNS = test system: SNB-19 CNS
# A549 NSCLC = test system: A549 NSCLC
# LOX IMVI melanoma = test system: LOX IMVI melanoma
# SK-MEL-28 melanoma = test system: SK-MEL-28 melanoma
# SF-539 CNS = test system: SF-539 CNS
# SF-268 CNS = test system: SF-268 CNS
# NCI-H23 lung = test system: NCI-H23 lung
# SK-MEL-5 melanoma = test system: SK-MEL-5 melanoma
# HS 578T breast = test system: HS 578T breast
# HCT-116 colon = test system: HCT-116 colon
# CAKI-1 renal = test system: CAKI-1 renal
# MDA-MB-231 breast = test system: MDA-MB-231 breast
# SK-OV-3 ovarian = test system: SK-OV-3 ovarian
# 786-0 renal = test system: 786-0 renal
# M14 melanoma = test system: M14 melanoma
# SR leukemia = test system: SR leukemia
# UACC-62 melanoma = test system: UACC-62 melanoma
# SNB-75 CNS = test system: SNB-75 CNS
# KM12 colon = test system: KM12 colon
# RXF 393 renal = test system: RXF 393 renal
# PC-3 prostate = test system: PC-3 prostate
# MDA-MB-435 = test system: MDA-MB-435
# SN12C renal = test system: SN12C renal
# NCI-H460 lung = test system: NCI-H460 lung
# NCI/ADR-RES ovarian = test system: NCI/ADR-RES ovarian
# OVCAR-3 ovarian = test system: OVCAR-3 ovarian
# SK-MEL-2 melanoma = test system: SK-MEL-2 melanoma
# SF-295 CNS = test system: SF-295 CNS
# UO-31 renal = test system: UO-31 renal
# MOLT-4 leukemia = test system: MOLT-4 leukemia
# SW-620 colon = test system: SW-620 colon
# IGROV1 ovarian = test system: IGROV1 ovarian
# OVCAR-5 ovarian = test system: OVCAR-5 ovarian
# EKVX NSCLC = test system: EKVX NSCLC
# U251 CNS = test system: U251 CNS
# OVCAR-4 ovarian = test system: OVCAR-4 ovarian
# HT29 colon = test system: HT29 colon
# OVCAR-8 ovarian = test system: OVCAR-8 ovarian
# MCF7 breast = test system: MCF7 breast
# HOP-62 NSCLC = test system: HOP-62 NSCLC
# T-47D breast = test system: T-47D breast
# NCI-H226 lung = test system: NCI-H226 lung
# TK-10 renal = test system: TK-10 renal
# MALME-3M melanoma = test system: MALME-3M melanoma
# CCRF-CEM leukemia = test system: CCRF-CEM leukemia
# NCI-H522 lung = test system: NCI-H522 lung
# UACC-257 melanoma = test system: UACC-257 melanoma
smiles,measurement,setting,value
CC(C)(C)NC(C1=CC(C)(C)c2ccccc2C1=O)c1ccccc1 (configuration not stated),GI50,BT-549 breast,1610 nM
same,TGI,BT-549 breast,4920 nM
same,GI50,ACHN renal,1490 nM
same,TGI,ACHN renal,2820 nM
same,GI50,HCT-15 colon,1290 nM
same,TGI,HCT-15 colon,2680 nM
same,GI50,HCC-2998 colon,1660 nM
same,TGI,HCC-2998 colon,3100 nM
same,GI50,COLO 205 colon,1350 nM
same,TGI,COLO 205 colon,2630 nM
same,GI50,A498 renal,1870 nM
same,TGI,A498 renal,6370 nM
same,GI50,HL-60(TB) leukemia,868 nM
same,TGI,HL-60(TB) leukemia,2900 nM
same,GI50,DU-145 prostate,1550 nM
same,TGI,DU-145 prostate,3240 nM
same,GI50,K-562 leukemia,1670 nM
same,TGI,K-562 leukemia,3860 nM
same,GI50,SNB-19 CNS,3360 nM
same,TGI,SNB-19 CNS,14200 nM
same,GI50,A549 NSCLC,2160 nM
same,TGI,A549 NSCLC,5250 nM
same,GI50,LOX IMVI melanoma,1420 nM
same,TGI,LOX IMVI melanoma,2730 nM
same,GI50,SK-MEL-28 melanoma,1600 nM
same,TGI,SK-MEL-28 melanoma,2950 nM
same,GI50,SF-539 CNS,1660 nM
same,TGI,SF-539 CNS,3020 nM
same,GI50,SF-268 CNS,1380 nM
same,TGI,SF-268 CNS,2740 nM
same,GI50,NCI-H23 lung,1490 nM
same,TGI,NCI-H23 lung,3170 nM
same,GI50,SK-MEL-5 melanoma,1520 nM
same,TGI,SK-MEL-5 melanoma,2840 nM
same,GI50,HS 578T breast,1430 nM
same,TGI,HS 578T breast,6080 nM
same,GI50,HCT-116 colon,1350 nM
same,TGI,HCT-116 colon,2640 nM
same,GI50,CAKI-1 renal,3260 nM
same,TGI,CAKI-1 renal,13400 nM
same,GI50,MDA-MB-231 breast,1580 nM
same,TGI,MDA-MB-231 breast,3450 nM
same,GI50,SK-OV-3 ovarian,3040 nM
same,TGI,SK-OV-3 ovarian,12100 nM
same,GI50,786-0 renal,1750 nM
same,TGI,786-0 renal,3130 nM
same,GI50,M14 melanoma,1520 nM
same,TGI,M14 melanoma,2850 nM
same,GI50,SR leukemia,293 nM
same,TGI,SR leukemia,1740 nM
same,GI50,UACC-62 melanoma,1300 nM
same,TGI,UACC-62 melanoma,2820 nM
same,GI50,SNB-75 CNS,1020 nM
same,TGI,SNB-75 CNS,2570 nM
same,GI50,KM12 colon,1420 nM
same,TGI,KM12 colon,2730 nM
same,GI50,RXF 393 renal,1220 nM
same,TGI,RXF 393 renal,2530 nM
same,GI50,PC-3 prostate,1630 nM
same,TGI,PC-3 prostate,3420 nM
same,GI50,MDA-MB-435,1980 nM
same,TGI,MDA-MB-435,5400 nM
same,GI50,SN12C renal,1610 nM
same,TGI,SN12C renal,3570 nM
same,GI50,NCI-H460 lung,1930 nM
same,TGI,NCI-H460 lung,4580 nM
same,GI50,NCI/ADR-RES ovarian,2450 nM
same,TGI,NCI/ADR-RES ovarian,6290 nM
same,GI50,OVCAR-3 ovarian,1310 nM
same,TGI,OVCAR-3 ovarian,2580 nM
same,GI50,SK-MEL-2 melanoma,1490 nM
same,TGI,SK-MEL-2 melanoma,3080 nM
same,GI50,SF-295 CNS,5070 nM
same,TGI,SF-295 CNS,17800 nM
same,GI50,UO-31 renal,1180 nM
same,TGI,UO-31 renal,2450 nM
same,GI50,MOLT-4 leukemia,1480 nM
same,TGI,MOLT-4 leukemia,4600 nM
same,GI50,SW-620 colon,1530 nM
same,TGI,SW-620 colon,2920 nM
same,GI50,IGROV1 ovarian,1520 nM
same,TGI,IGROV1 ovarian,4870 nM
same,GI50,OVCAR-5 ovarian,1820 nM
same,TGI,OVCAR-5 ovarian,3780 nM
same,GI50,EKVX NSCLC,1670 nM
same,TGI,EKVX NSCLC,4610 nM
same,GI50,U251 CNS,1540 nM
same,TGI,U251 CNS,2870 nM
same,GI50,OVCAR-4 ovarian,1510 nM
same,TGI,OVCAR-4 ovarian,5930 nM
same,GI50,HT29 colon,1540 nM
same,TGI,HT29 colon,2880 nM
same,GI50,OVCAR-8 ovarian,1740 nM
same,TGI,OVCAR-8 ovarian,4190 nM
same,GI50,MCF7 breast,1320 nM
same,TGI,MCF7 breast,2590 nM
same,GI50,HOP-62 NSCLC,2160 nM
same,TGI,HOP-62 NSCLC,4840 nM
same,GI50,T-47D breast,1120 nM
same,TGI,T-47D breast,2550 nM
same,GI50,NCI-H226 lung,1420 nM
same,TGI,NCI-H226 lung,3170 nM
same,GI50,TK-10 renal,1750 nM
same,TGI,TK-10 renal,3390 nM
same,GI50,MALME-3M melanoma,1340 nM
same,TGI,MALME-3M melanoma,2970 nM
same,GI50,CCRF-CEM leukemia,1140 nM
same,TGI,CCRF-CEM leukemia,4070 nM
same,GI50,NCI-H522 lung,1100 nM
same,TGI,NCI-H522 lung,2410 nM
same,GI50,UACC-257 melanoma,1420 nM
same,TGI,UACC-257 melanoma,2940 nM

# Source: PubChem BioAssay (NCI)
